Test results as given in patent US11510949B2, “Use of the treatment or improvement of sleep disorders by Lactobacillus brevis ProGA28 and/or its metabolites” (SYNGEN BIOTECH CO., LTD, priority 2019, dated 2022).

System: SHR rats
Experiment: Sleep quality and quantity assessment in SHR rats after tube feeding (EEG/EMG sleep staging)
Assay type: in vivo
[1] = pure substance administered, FIG. 5

Procedure: The dosage of the test products used in the following examples is based on the daily human consumption of 8.3 mg/kg, and then according to the body surface area model coefficient of 6.2 to calculate the standard feeding dosage for rats being 52 mg/kg which is set as 1.0× dose given in the following examples.
The “sleep stage” called in the following examples includes the following three stages: awake (AW); quiet sleep (QS) which is equivalent to human non-rapid eye movement sleep (NREM) and paradoxical sleep (PS) which is equivalent to human rapid eye movement sleep (REM).
Frequency domain analysis of brain waves and myoelectric waves: each 16 seconds (1024 points) of brain wave signal acquisition is called a time window (or epoch), and is compared with 8 seconds before the next time window (50%) overlap for analysis. The fast Fourier transform is used to estimate the power spectral density and evaluate the activity of brain waves in different frequency bands. […]
Each test product was dissolved in drinking water and administered by tube feeding, the administration time was 1 hour before the light, and the physiological information of each group of rats was recorded at the beginning of the light, as a basis for sleep assessment.
In addition, pure gamma-aminobutyric acid was also administered to the SHR rats, and as described above, the physiological information of SHR rats was detected and recorded as a basis for sleep assessment.
The quality and quantity of sleep in the 24 hours after each test product was fed which was used as the range of sleep assessment:
The quantity of sleep: including the total time of sleep and wakefulness, the number of falling asleep and the average time of each sleep stage (duration) etc., and evaluate the quantity of sleep for each sleep stage; and the sleep of the group fed water is defined as 100%, used for comparing with the other groups fed test products to show the difference in each sleep stage.

How did the “quality and quantity of sleep” value (overall comparison of the figures, dose not specified) turn out when `NCCCC(=O)O` [pure y-aminobutyric acid, γ-aminobutyric acid] was run?
Its value is “not helpful for the improvement”.

And the “sleep quality of rats” value [1]?
The value was “not helpful to increase the sleep quality”.

What about the sleep time [1] of the same compound?
Its sleep time is “can not increase sleep time”.
